Where two headings read alike, the source gives them in different places.
Test system: panel of 55 breast cancer cell lines
Assay: Cell growth inhibition assay (Cell Titer Glo, 72 h, 9 doses; GI50, TGI, LC50)
Type: cell-based, human
Settings: Homo sapiens, read-out: GI50 (converted)

NS(=O)(=O)OC[C@@H]1C[C@@H](n2ccc3c(N[C@H]4CCc5ccccc54)ncnc32)C[C@@H]1O [MLN4924]
GI50 (AU565, cell line AU565, censored GI50 values): 182 nM
GI50 (AU565, cell line AU565): 182 nM
GI50 (BT-20, cell line BT20, censored GI50 values): 2750 nM
GI50 (BT-20, cell line BT20): 2750 nM
GI50 (BT-474, cell line BT474, censored GI50 values): 575 nM
GI50 (BT-474, cell line BT474): 575 nM
GI50 (BT-483, cell line BT483, censored GI50 values): 33100 nM
GI50 (BT-483, cell line BT483): 33100 nM
GI50 (CAMA-1, cell line CAMA1, censored GI50 values): 51.3 nM
GI50 (CAMA-1, cell line CAMA1): 51.3 nM
GI50 (HCC38, cell line HCC38, censored GI50 values): 27.5 nM
GI50 (HCC38, cell line HCC38): 27.5 nM
GI50 (HCC70, cell line HCC70, censored GI50 values): 33100 nM
GI50 (HCC70, cell line HCC70): 33100 nM
GI50 (HCC1143, cell line HCC1143, censored GI50 values): 245 nM
GI50 (HCC1143, cell line HCC1143): 245 nM
GI50 (HCC1187, cell line HCC1187, censored GI50 values): 501 nM
GI50 (HCC1187, cell line HCC1187): 501 nM
GI50 (HCC1419, cell line HCC1419, censored GI50 values): 22.9 nM
GI50 (HCC1419, cell line HCC1419): 22.9 nM
GI50 (HCC1428, cell line HCC1428, censored GI50 values): 117 nM
GI50 (HCC1428, cell line HCC1428): 117 nM
GI50 (HCC1500, cell line HCC1500, censored GI50 values): 11.7 nM
GI50 (HCC1500, cell line HCC1500): 11.7 nM
GI50 (HCC1806, cell line HCC1806, censored GI50 values): 21.4 nM
GI50 (HCC1806, cell line HCC1806): 21.4 nM
GI50 (HCC1937, cell line HCC1937, censored GI50 values): 2630 nM
GI50 (HCC1937, cell line HCC1937): 2630 nM
GI50 (HCC1954, cell line HCC1954, censored GI50 values): 4470 nM
GI50 (HCC1954, cell line HCC1954): 4470 nM
GI50 (MDA-MB-134-VI, cell line MDAMB134VI, censored GI50 values): 52.5 nM
GI50 (MDA-MB-175-VII, cell line MDAMB175VII, censored GI50 values): 427 nM
GI50 (MDA-MB-415, cell line MDAMB415, censored GI50 values): 74.1 nM
GI50 (MDA-MB-415, cell line MDAMB415): 74.1 nM
GI50 (MDA-MB-436, cell line MDAMB436, censored GI50 values): 269 nM
GI50 (MDA-MB-436, cell line MDAMB436): 269 nM
GI50 (MDA-MB-453, cell line MDAMB453, censored GI50 values): 2190 nM
GI50 (MDA-MB-453, cell line MDAMB453): 2190 nM
GI50 (MDA-MB-468, cell line MDAMB468, censored GI50 values): 204 nM
GI50 (MDA-MB-468, cell line MDAMB468): 204 nM
GI50 (SK-BR-3, cell line SKBR3, censored GI50 values): 151 nM
GI50 (SK-BR-3, cell line SKBR3): 151 nM
GI50 (SUM52PE, cell line SUM52PE, censored GI50 values): 398 nM
GI50 (SUM52PE, cell line SUM52PE): 398 nM
GI50 (SUM149PT, cell line SUM149PT, censored GI50 values): 191 nM
GI50 (SUM149PT, cell line SUM149PT): 191 nM
GI50 (SUM1315MO2, cell line SUM1315MO2, censored GI50 values): 33100 nM
GI50 (SUM-159-PT, cell line SUM159PT, censored GI50 values): 589 nM
GI50 (SUM-159-PT, cell line SUM159PT): 589 nM
GI50 (T47D, cell line T47D, censored GI50 values): 117 nM
GI50 (T47D, cell line T47D): 117 nM
GI50 (UACC-812, cell line UACC812, censored GI50 values): 1000 nM
GI50 (UACC-812, cell line UACC812): 1000 nM
GI50 (ZR-75-1, cell line ZR751, censored GI50 values): 33900 nM
GI50 (ZR-75-1, cell line ZR751): 33900 nM
GI50 (ZR-75B, cell line ZR75B, censored GI50 values): 145 nM
GI50 (ZR-75B, cell line ZR75B): 145 nM
GI50 (cell line 600MPE, censored GI50 values): 372 nM
GI50 (cell line 600MPE): 372 nM
GI50 (cell line HCC2185, censored GI50 values): 372 nM
GI50 (cell line HCC2185): 372 nM
GI50 (cell line HCC3153, censored GI50 values): 229 nM
GI50 (cell line HCC3153): 229 nM
GI50 (cell line LY2, censored GI50 values): 158 nM
GI50 (cell line LY2): 158 nM
GI50 (cell line MDAMB134V): 52.5 nM
GI50 (cell line MDAMB175V): 427 nM
GI50 (cell line SUM1315MO): 33100 nM

Source: US10770169B2, “Method of providing a treatment to a subject based on a dynamic pathway map” (THE REGENTS OF THE UNIVERSITY OF CALIFORNIA, priority 2010, dated 2020)
